Results: patent US20040024024A1, “Aromatic sulfone hydroxamates and their use as protease inhibitors” (priority 2001, published 2004)
Where a name gives a salt, the structure may show the parent alone.

Experiments:
Format in all cases: biochemical
Human recombinant MMP-1 = molecular target: T1, Human recombinant MMP-1 (Homo sapiens, UniProt P03956); experiment: In vitro MMP inhibition, IC50 determination (fluorogenic substrate I)
T1 construct: made in house; host or cells: MMP-1-transfected HT-1080 cells (spent media)
T1 sequence (P03956 100-469): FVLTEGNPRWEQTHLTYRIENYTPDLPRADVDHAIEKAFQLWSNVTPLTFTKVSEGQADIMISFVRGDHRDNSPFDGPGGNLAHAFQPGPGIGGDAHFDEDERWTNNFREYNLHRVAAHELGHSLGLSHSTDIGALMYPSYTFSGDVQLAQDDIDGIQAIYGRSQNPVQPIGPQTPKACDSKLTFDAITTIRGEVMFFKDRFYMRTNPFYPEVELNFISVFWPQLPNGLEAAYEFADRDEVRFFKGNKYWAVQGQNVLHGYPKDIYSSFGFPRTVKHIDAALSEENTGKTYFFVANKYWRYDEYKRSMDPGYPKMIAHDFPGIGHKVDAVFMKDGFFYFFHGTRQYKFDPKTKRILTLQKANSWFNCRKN
Outline: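 APMA- or trypsin-activated enzyme, purified from spent media of transfected HT-1080 cells, incubated at room temperature with 4 μM MCA-Pro-Leu-Gly-Leu-Dpa-Ala-Arg-NH2 and graded inhibitor in Tris buffer pH 7.5 (10 mM CaCl2, 0.05% Brij). Cleavage read by fluorescence (ex 328/em 415 nm); IC50 from fluorescence reduction versus inhibitor concentration.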

Human recombinant MMP-13 = molecular target: T2, Human recombinant MMP-13 (Homo sapiens, UniProt P45452); experiment: as above
T2 construct: made in house; host or cells: baculovirus / insect cells
Outline: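 Fluorescence at 415 nm (excitation 328 nm) reports Gly-Leu cleavage of 4 μM quenched methoxycoumarin peptide substrate I. Human recombinant MMP-13, activated by trypsin or APMA, was incubated at room temperature with varied inhibitor concentrations in pH 7.5 Tris/NaCl/CaCl2 buffer; IC50 derived from reduced fluorescence.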

Human recombinant MMP-14 [1] = molecular target: T3, Human recombinant MMP-14 (Homo sapiens, UniProt P50281); experiment: as above
T3 construct: The catalytic domain enzyme was expressed in E. coli inclusion bodies, solubilized in urea; made in house
Outline: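 Catalytic-domain MMP-14, expressed in E. coli and refolded, activated with APMA or trypsin; compounds incubated at room temperature with 4 μM fluorogenic substrate I (MCA-PLGL-Dpa-AR-NH2) in Tris/NaCl/CaCl2 buffer, pH 7.5. Fluorescence at ex 328/em 415 nm; IC50 from loss of fluorescence versus inhibitor concentration.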

Human recombinant MMP-14 [2] = molecular target: T3, Human recombinant MMP-14; experiment: In vitro MMP inhibition, Ki determination (fluorogenic substrate II)
Protocol: Several hydroxamates and salts thereof were analyzed in in vitro assays to determine their ability to inhibit the MMP cleavage of peptide substrates. Inhibition (Ki) and IC50 constants were calculated from the assayed hydroxamate-MMP interactions.
Human recombinant MMP-1, MMP-2, MMP-9, MMP-13, and MMP-14 were used in this assay. All enzymes were prepared in Assignee's laboratories following usual laboratory procedures. Protocols for the preparation and use of these enzymes are available in the scientific literature. See, e.g., Enzyme Nomenclature (Academic Press, San Diego, Calif., 1992) (and the citations therein). See also, Frije et al., J. Biol. Chem., 26(24), 16766-73 (1994).
The MMP-14 full length cDNA was provided by Dr. Gregory Goldberg of Washington University (St. Louis, Mo.). The catalytic domain enzyme was expressed in E. coli inclusion bodies, solubilized in urea, purified on a preparative […] reverse phase HPLC column, and then refolded in the presence of zinc acetate and purified for use.
All MMPs were activated using 4-aminophenylmercuric acetate (“APMA”, Sigma Chemical, St. Louis, Mo.) or trypsin. MMP-9 also was activated using human recombinant MMP-3 (purified in Assignee's laboratory following standard cloning and purification techniques).
Two fluorogenic, methoxycoumarin-containing polypeptide substrates were used in the MMP inhibition assays:
MCA-ArgProLeuGlyLeuDpaAlaArgGluArgNH2 (II)
Here, “Dpa” is 3-(2,4-dinitrophenyl)-L-2,3-diaminopropionyl group, and “MCA” is 7-methoxycoumarin-4-yl acetyl. Substrate (I) was purchased from Baychem (Redwood City, Calif.), and substrate II was prepared Assignee's laboratory. Substrate I was used in the IC50 determination assays, while substrate II was used in the Ki determination assays. In the absence of MMP inhibitory activity, either substrate is cleaved at the Gly-Leu peptide bond. This cleavage separates the highly fluorogenic peptide from the 2,4-dinitrophenyl quencher, thus resulting in increase of fluorescent intensity.
The stock solutions of the assayed hydroxamates (or salts thereof) were prepared in 1% dimethyl sulfoxide (DMSO). These stock solutions were diluted in Buffer A (100 mM Tris-HCl, 100 mM NaCl, 10 mM CaCl2, 0.05% polyoxyethylene 23 lauryl ether, pH 7.5) to obtain solutions with different hydroxamate concentrations, i.e., assay solutions with different concentrations of the assayed MMP inhibitory compound. The experiment controls contained the same amount of Buffer A/DMSO as the assayed sample, but contained no hydroxamate (or salt thereof).
The assays from which the Ki determinations were made were performed as follows. The assayed hydroxamate samples were incubated in separate wells of untreated white polystyrene plates (Nunc Nalgene International, Rochester, N.Y.), and analyzed on a Tecan SpectraFlour Plus plate reader. The excitation wavelength was 330 nm, and the emission wavelength—420 nm. All samples (assayed hydroxamates and controls) were incubated in separate plate wells at room temperature for 1 hr in the presence of 4 μM of MMP substrate (II). In the absence of MMP inhibitory activity, substrate II was cleaved at the Gly-Leu bond resulting in an increase of relative fluorescence. Inhibition was observed as a reduced rate of this increase in relative fluorescence. The various hydroxamates were analyzed using a single low enzyme concentration with a single substrate concentration fixed at or below the Km. This protocol is a modification of method by Knight et al., FEBS Lett., 296(3), 263-266 (1992). Apparent inhibitory constants were determined by non-linear regression of reaction velocity as a function of inhibitor and enzyme concentration using Morrison's equation, as described by Kuzmic, Anal. Biochem. 286, 45-50 (2000). Modifications were made in the non-linear regression method to allow a common control reaction rate and effective enzyme concentration to be shared between all dose-response relationships on a given assay plate. […]

[3] = substrate (I) 4 μM, room temperature, values not in parenthesis
[4] = substrate (II) 4 μM, 1 hr room temperature, apparent Ki, values in parenthesis

| SMILES | IC50 (Human recombinant MMP-1; value outside parenthesis) [µM] | IC50 (Human recombinant MMP-13; value outside parenthesis) [µM] | IC50 (Human recombinant MMP-14 [1]; value outside parenthesis) [µM] | Ki (Human recombinant MMP-14 [2]; value in parenthesis) [µM] | also measured |
| --- | --- | --- | --- | --- | --- |
| N#Cc1ccc(-c2cccc(CCCOc3ccc(S(=O)(=O)C4(C(=O)NO)CCOCC4)cc3)c2)cc1 [Example 624] | – | – | – | – | IC50 (Human recombinant MMP-1; value outside parentheses): > 10 µM; IC50 (Human recombinant MMP-13; value outside parentheses): 0.0003 µM; IC50 (Human recombinant MMP-14 [1]; value outside parentheses): > 10 µM; Ki (Human recombinant MMP-14 [2]; value in parentheses): 7.58 µM |
| CCc1ccccc1-c1noc(CCCOc2ccc(S(=O)(=O)C3(C(=O)NO)CCN(CCOC)CC3)cc2)n1 [Example 155] | > 10 | 0.0097 | > 10 | 9.37 | – |
| O=C(NO)C1(S(=O)(=O)c2ccc(OCCCc3cccc(-c4ccccc4F)c3)cc2)CCOCC1 [Example 163] | > 10 | 0.0025 | > 10 | > 10 | – |
| O=C(Cc1csc2ccccc12)NCCOc1ccc(S(=O)(=O)C2(C(=O)NO)CCOCC2)cc1 [Example 596] | – | – | – | – | IC50 (Human recombinant MMP-1; value outside parentheses): > 10 µM; IC50 (Human recombinant MMP-13; value outside parentheses): 0.0027 µM; IC50 (Human recombinant MMP-14 [1]; value outside parentheses): 2.49 µM; Ki (Human recombinant MMP-14 [2]; value in parentheses): 1.16 µM |
| O=C(NO)C1(S(=O)(=O)c2ccc(OCCCn3nnc(-c4ccc(OC(F)(F)F)cc4)n3)cc2)CCN(C2CC2)CC1 [Example 49] | – | – | – | – | IC50 (Human recombinant MMP-1; [3]): > 10 µM; IC50 (Human recombinant MMP-13; [3]): 0.0003 µM; IC50 (Human recombinant MMP-14 [1]; [3]): > 10 µM; Ki (Human recombinant MMP-14 [2]; [4]): > 10 µM |
| Cc1ccc(-c2cccc(CCOc3ccc(S(=O)(=O)C4(C(=O)NO)CCOCC4)cc3)c2)cc1 [Example 127] | > 10 | 0.0055 | > 10 | > 10 | – |
| O=C(CCCOc1ccc(S(=O)(=O)C2(C(=O)NO)CCOCC2)cc1)Nc1cccc(OC(F)(F)F)c1 [Example 181] | > 10 | 0.0003 | 8.06 | 4.83 | – |
| O=C(NO)C1(S(=O)(=O)c2ccc(OCCCc3nc(-c4ccc(OC(F)(F)F)cc4)no3)cc2)CCN(C2CC2)CC1 [Example 51, 1-cyclopropyl-N-hydroxy-4-{[4-(3-{3-[4-(trifluoromethoxy)phenyl]-1,2,4-oxadiazol-5-yl}propoxy)phenyl]sulfonyl}piperidine-4-carboxamide Hydrochloride] | – | – | – | – | IC50 (Human recombinant MMP-1; [3]): > 10 µM; IC50 (Human recombinant MMP-13; [3]): 0.0002 µM; IC50 (Human recombinant MMP-14 [1]; [3]): > 10 µM; Ki (Human recombinant MMP-14 [2]; [4]): 0.688 µM |
| Cc1cc(NC(=O)CCCOc2ccc(S(=O)(=O)C3(C(=O)NO)CCOCC3)cc2)ccc1OC(C)C [Example 290] | > 10 | 0.0011 | > 10 | > 10 | – |
| COc1ccc(/C(C#N)=C/CCCOc2ccc(S(=O)(=O)C3(C(=O)NO)CCN(C4CC4)CC3)cc2)cc1 [Example 233] | > 10 | 0.0001 | > 10 | > 10 | – |
| O=C(NO)C1(S(=O)(=O)c2ccc(OCCCc3cncc(-c4ccccc4)c3)cc2)CCOCC1 [Example 524] | – | – | – | – | IC50 (Human recombinant MMP-1; value outside parentheses): > 10 µM; IC50 (Human recombinant MMP-13; value outside parentheses): 0.0002 µM; IC50 (Human recombinant MMP-14 [1]; value outside parentheses): > 10 µM; Ki (Human recombinant MMP-14 [2]; value in parentheses): > 10 µM |
| COCCN1CCC(C(=O)NO)(S(=O)(=O)c2ccc(OCCCc3nc(-c4ccc(CC(C)C)cc4)no3)cc2)CC1 [Example 175] | > 10 | 0.0014 | > 10 | > 10 | – |
| O=C(NO)C1(S(=O)(=O)c2ccc(OCCc3cccc(-c4cccnc4)c3)cc2)CCOCC1 [Example 125] | 2.94 | 0.0002 | 5.82 | 1.67 | – |
| O=C(NO)C1(S(=O)(=O)c2ccc(OCCCc3cccc(-c4ccc(F)cc4)c3)cc2)CCN(C2CC2)CC1 [Example 139] | > 10 | 0.0004 | > 10 | > 10 | – |
| O=C(NO)C1(S(=O)(=O)c2ccc(OCCCc3cccc(-c4ccc5c(c4)OCO5)c3)cc2)CCOCC1 [Example 628] | – | – | – | – | IC50 (Human recombinant MMP-1; value outside parentheses): > 10 µM; IC50 (Human recombinant MMP-13; value outside parentheses): 0.0033 µM; IC50 (Human recombinant MMP-14 [1]; value outside parentheses): > 10 µM; Ki (Human recombinant MMP-14 [2]; value in parentheses): > 10 µM |
| CC(C)c1ccc(-c2cccc(CCCOc3ccc(S(=O)(=O)C4(C(=O)NO)CCOCC4)cc3)c2)cc1 [Example 160] | > 10 | 0.505 | – | > 10 | – |
| O=C(NO)C1(S(=O)(=O)c2ccc(OCCCc3cccc(Cc4ccccc4)c3)cc2)CCOCC1 [Example 98] | > 10 | 0.0018 | > 10 | > 10 | – |
| CCN1CCC(C(=O)NO)(S(=O)(=O)c2ccc(OCCCSc3nc4ccccc4s3)cc2)CC1 [Example 591] | – | – | – | – | IC50 (Human recombinant MMP-1; value outside parentheses): > 10 µM; IC50 (Human recombinant MMP-13; value outside parentheses): 0.0003 µM; IC50 (Human recombinant MMP-14 [1]; value outside parentheses): > 10 µM; Ki (Human recombinant MMP-14 [2]; value in parentheses): 8.74 µM |
| O=C(NO)C1(S(=O)(=O)c2ccc(OCCc3cccc(-c4ccccn4)c3)cc2)CCOCC1 [Example 40] | – | – | – | – | IC50 (Human recombinant MMP-1; [3]): > 10 µM; IC50 (Human recombinant MMP-13; [3]): 0.0005 µM; IC50 (Human recombinant MMP-14 [1]; [3]): > 10 µM; Ki (Human recombinant MMP-14 [2]; [4]): > 10 µM |
| CC(C)c1cccc(NC(=O)CCCOc2ccc(S(=O)(=O)C3(C(=O)NO)CCOCC3)cc2)c1 [Example 182] | > 10 | 0.0005 | > 10 | 5.85 | – |
| O=C(NO)C1(S(=O)(=O)c2ccc(OCCCc3cccc(-c4cccc5ccccc45)c3)cc2)CCOCC1 [Example 638] | – | – | – | – | IC50 (Human recombinant MMP-13; value outside parentheses): 0.4 µM; Ki (Human recombinant MMP-14 [2]; value in parentheses): > 10 µM |
